Each compound was assayed against T1, recombinant N-terminal MLH1 (residues 15-340) (Homo sapiens, UniProt P40692) (assay: Fluorescence Polarisation Assay for MLH1). Details: 100 nM N-terminal MLH1, 5 nM probe compound.
T1 construct: recombinant N-terminal MLH1 (residues 15-340)
T1 sequence (P40692 15-340): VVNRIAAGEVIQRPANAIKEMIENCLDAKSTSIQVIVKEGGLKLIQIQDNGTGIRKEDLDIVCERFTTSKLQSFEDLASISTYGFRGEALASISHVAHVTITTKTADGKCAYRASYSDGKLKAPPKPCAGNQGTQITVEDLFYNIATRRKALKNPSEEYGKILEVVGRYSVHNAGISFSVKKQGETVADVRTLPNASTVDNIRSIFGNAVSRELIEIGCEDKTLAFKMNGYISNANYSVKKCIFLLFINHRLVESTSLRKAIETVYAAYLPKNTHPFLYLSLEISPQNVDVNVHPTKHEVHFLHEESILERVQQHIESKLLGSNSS
Assay type: binding
Procedure, shortened: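 Fluorescence polarisation displacement: 100 nM MLH1 (15-340) preincubated 30 min at room temperature with compound, then 5 nM rhodamine-labelled probe added and read immediately. Buffer 25 mM HEPES pH 7.5, 250 mM NaCl, 10 mM MgCl2, 0.01% Triton X-100, 5 mM DTT; normalised to no-inhibitor and no-enzyme controls.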

Row | Compound | IC50 [µM]
1 | CN(C)CCOc1cc2c(c(N[C@H]3CCOC3)c1)CN(C(=O)c1c(O)cc(Cl)cc1OCc1ccccc1)CC2 [Example 22, (S)-(2-(Benzyloxy)-4-chloro-6-hydroxyphenyl)(6-(2-(dimethylamino)ethoxy)-8-((tetrahydrofuran-3-yl)amino)-3,4-dihydroisoquinolin-2(1H)-yl)methanone] | < 0.1
2 | CN(C)Cc1cc2c(cn1)CN(C(=O)c1c(O)cc(C#N)cc1OCc1ccccc1)C2 [Example 27, 3-(Benzyloxy)-4-(6-((dimethylamino)methyl)-2,3-dihydro-1H-pyrrolo[3,4-c]pyridine-2-carbonyl)-5-hydroxybenzonitrile] | 1 to 10
3 | CN1CCN(c2cc3c(cn2)CN(C(=O)c2c(O)cc(C#N)cc2OCc2ccccc2)C3)CC1 [Example 27.1, 3-(Benzyloxy)-5-hydroxy-4-(6-(4-methylpiperazin-1-yl)-2,3-dihydro-1H-pyrrolo[3,4-c]pyridine-2-carbonyl)benzonitrile] | 1 to 10
4 | CN1CCC(Oc2ccc3c(c2)CCN(C(=O)c2c(O)cc(C#N)cc2OCc2ccccc2)CC3)CC1 [Example 27.6, 3-(Benzyloxy)-5-hydroxy-4-(7-((1-methylpiperidin-4-yl)oxy)-2,3,4,5-tetrahydro-1H-benzo[d]azepine-3-carbonyl)benzonitrile hydroformate] | 1 to 10
5 | CN1CCC(Oc2ccc3c(c2)CCN(C(=O)c2c(O)cc(C(F)F)cc2OCc2ccccc2)CC3)CC1 [Example 27.7, (2-(Benzyloxy)-4-(difluoromethyl)-6-hydroxyphenyl)(7-((1-methylpiperidin-4-yl)oxy)-1,2,4,5-tetrahydro-3H-benzo[d]azepin-3-yl)methanone] | 0.1 to 1
6 | N#Cc1cc(O)c(C(=O)N2Cc3cnc(N4CCOCC4)cc3C2)c(OCc2ccccc2)c1 [Example 27.8, 3-(Benzyloxy)-5-hydroxy-4-(6-morpholino-2,3-dihydro-1H-pyrrolo[3,4-c]pyridine-2-carbonyl)benzonitrile] | 1 to 10
7 | O=C(c1c(O)cc(C(F)F)cc1OCc1ccccc1)N1Cc2cnc(N3CCOCC3)cc2C1 [Example 27.9, (2-(Benzyloxy)-4-(difluoromethyl)-6-hydroxyphenyl)(6-morpholino-1,3-dihydro-2H-pyrrolo[3,4-c]pyridin-2-yl)methanone] | 0.1 to 1
8 | N#Cc1cc(O)c(C(=O)N2Cc3cnc(N)cc3C2)c(OCc2ccccc2)c1 [Example 27.10, 4-(6-Amino-2,3-dihydro-1H-pyrrolo[3,4-c]pyridine-2-carbonyl)-3-(benzyloxy)-5-hydroxybenzonitrile hydroformate] | 1 to 10
9 | Nc1cc2c(cn1)CN(C(=O)c1c(O)cc(C(F)F)cc1OCc1ccccc1)C2 [Example 27.11, (6-Amino-1,3-dihydro-2H-pyrrolo[3,4-c]pyridin-2-yl)(2-(benzyloxy)-4-(difluoromethyl)-6-hydroxyphenyl)methanone hydroformate] | 0.1 to 1
10 | CN(C)CCOc1cccc2c1CCN2C(=O)c1c(O)cc(C#N)cc1OCc1ccccc1 [Example 27.12, 3-(Benzyloxy)-4-(4-(2-(dimethylamino)ethoxy)indoline-1-carbonyl)-5-hydroxybenzonitrile] | 1 to 10
11 | N#Cc1cc(O)c(C(=O)N2CCc3cccnc32)c(OCc2ccccc2)c1 [Example 27.14, 3-(Benzyloxy)-4-(2,3-dihydro-1H-pyrrolo[2,3-b]pyridine-1-carbonyl)-5-hydroxybenzonitrile] | 1 to 10
12 | CN(C)CCOc1nc2c(c(NC3CCOC3)n1)CN(C(=O)c1c(O)cc(C#N)cc1OCc1ccccc1)CC2 (stereo not drawn) [Example 27.16, 3-(Benzyloxy)-4-(2-(2-(dimethylamino)ethoxy)-4-((tetrahydrofuran-3-yl)amino)-5,6,7,8-tetrahydropyrido[4,3-d]pyrimidine-6-carbonyl)-5-hydroxybenzonitrile] | 0.1 to 1
13 | O=C(c1c(O)cc(C(F)F)cc1OCC12CC(CO1)C2)N1CCc2cccc(N[C@H]3CCOC3)c2C1 [Example 28.1, (S)-(2-((2-Oxabicyclo[2.1.1]hexan-1-yl)methoxy)-4-(difluoromethyl)-6-hydroxyphenyl)(8-((tetrahydrofuran-3-yl)amino)-3,4-dihydroisoquinolin-2(1H)-yl)methanone] | 1 to 10

Continued, values first:

Row | IC50 [µM] | Compound
14 | 0.1 to 1 | O=C(c1c(O)cc(C(F)(F)F)cc1OCc1ccccc1)N1Cc2cccc(N[C@H]3CCOC3)c2C1 [Example 23, (S)-(2-(Benzyloxy)-6-hydroxy-4-(trifluoromethyl)phenyl) (4-((tetrahydrofuran-3-yl)amino)isoindolin-2-yl) methanone]
15 | 0.1 to 1 | O=C(c1c(O)cc(C(F)F)cc1OCc1ccccc1)N1CCc2ccc(NC3CCOC3)cc21 (stereo not drawn) [Example 27.2, (2-(Benzyloxy)-4-(difluoromethyl)-6-hydroxyphenyl)(6-((tetrahydrofuran-3-yl)amino)indolin-1-yl)methanone]
16 | 1 to 10 | N#Cc1cc(O)c(C(=O)N2CCc3ccc(NC4CCOC4)cc32)c(OCc2ccccc2)c1 (stereo not drawn) [Example 27.3, 3-(Benzyloxy)-5-hydroxy-4-(6-((tetrahydrofuran-3-yl)amino)indoline-1-carbonyl)benzonitrile]
17 | 1 to 10 | N#Cc1cc(O)c(C(=O)N2CCc3cc(NC4CCOC4)ccc32)c(OCc2ccccc2)c1 (stereo not drawn) [Example 27.4, 3-(Benzyloxy)-5-hydroxy-4-(5-((tetrahydrofuran-3-yl)amino)indoline-1-carbonyl)benzonitrile]
18 | 1 to 10 | O=C(c1c(O)cc(C(F)F)cc1OCc1ccccc1)N1CCc2cc(NC3CCOC3)ccc21 (stereo not drawn) [Example 27.5, (2-(Benzyloxy)-4-(difluoromethyl)-6-hydroxyphenyl)(5-((tetrahydrofuran-3-yl)amino)indolin-1-yl)methanone]
19 | 0.1 to 1 | CN(C)CCOc1cccc2c1CCN2C(=O)c1c(O)cc(C(F)F)cc1OCc1ccccc1 [Example 27.13, (2-(Benzyloxy)-4-(difluoromethyl)-6-hydroxyphenyl)(4-(2-(dimethylamino)ethoxy)indolin-1-yl)methanone]
20 | 1 to 10 | O=C(c1c(O)cc(C(F)F)cc1OCc1ccccc1)N1CCc2cccnc21 [Example 27.15, (2-(Benzyloxy)-4-(difluoromethyl)-6-hydroxyphenyl)(2,3-dihydro-1H-pyrrolo[2,3-b]pyridin-1-yl)methanone]
21 | 0.1 to 1 | CN(C)CCOc1nc2c(c(NC3CCOC3)n1)CN(C(=O)c1c(O)cc(C(F)F)cc1OCc1ccccc1)CC2 (stereo not drawn) [Example 27.17, (2-(Benzyloxy)-4-(difluoromethyl)-6-hydroxyphenyl)(2-(2-(dimethylamino)ethoxy)-4-((tetrahydrofuran-3-yl)amino)-7,8-dihydropyrido[4,3-d]pyrimidin-6(5H)-yl)methanone]
22 | 1 to 10 | N#Cc1cc(O)c(C(=O)N2CCCc3cc(NC4CCOC4)ccc32)c(OCc2ccccc2)c1 (stereo not drawn) [Example 27.18, 3-(Benzyloxy)-5-hydroxy-4-(6-((tetrahydrofuran-3-yl)amino)-1,2,3,4-tetrahydroquinoline-1-carbonyl)benzonitrile]
23 | 1 to 10 | O=C(c1c(O)cc(C(F)F)cc1OCc1ccccc1)N1CCCc2cc(NC3CCOC3)ccc21 (stereo not drawn) [Example 27.19, (2-(Benzyloxy)-4-(difluoromethyl)-6-hydroxyphenyl)(6-((tetrahydrofuran-3-yl)amino)-3,4-dihydroquinolin-1(2H)-yl)methanone]
24 | 0.1 to 1 | O=C(c1c(O)cc(C(F)F)cc1OCc1ccccc1)N1CCc2ncnc(NC3CCOC3)c2C1 (stereo not drawn) [Example 27.20, (2-(Benzyloxy)-4-(difluoromethyl)-6-hydroxyphenyl)(4-((tetrahydrofuran-3-yl)amino)-7,8-dihydropyrido[4,3-d]pyrimidin-6(5H)-yl)methanone]
25 | 1 to 10 | O=C(c1c(O)cc(C(F)F)cc1OCc1ccccc1)N1CCc2cnccc21 [Example 27.21, (2-(Benzyloxy)-4-(difluoromethyl)-6-hydroxyphenyl)(2,3-dihydro-1H-pyrrolo[3,2-c]pyridin-1-yl)methanone]
26 | 1 to 10 | O=C(c1c(O)cc(C(F)F)cc1OCc1ccccc1)N1CCc2ncccc21 [Example 27.22, (2-(Benzyloxy)-4-(difluoromethyl)-6-hydroxyphenyl)(2,3-dihydro-1H-pyrrolo[3,2-b]pyridin-1-yl)methanone]
27 | 1 to 10 | O=C(c1c(O)cc(C(F)F)cc1OCc1ccccc1)N1CCc2ccncc21 [Example 27.23, (2-(Benzyloxy)-4-(difluoromethyl)-6-hydroxyphenyl)(2,3-dihydro-1H-pyrrolo[2,3-c]pyridin-1-yl)methanone]
28 | 1 to 10 | O=C(c1c(O)cc(C(F)F)cc1OCc1ccccc1)N1CCc2c(NC3CCOC3)cccc21 (stereo not drawn) [Example 27.24, (2-(Benzyloxy)-4-(difluoromethyl)-6-hydroxyphenyl)(4-((tetrahydrofuran-3-yl)amino)indolin-1-yl)methanone]
29 | < 0.1 | Cn1ncc2ccc(COc3cc(C(F)F)cc(O)c3C(=O)N3CCc4cccc(N[C@H]5CCOC5)c4C3)cc21 [Example 28, (S)-(4-(Difluoromethyl)-2-hydroxy-6-((1-methyl-1H-indazol-6-yl)methoxy)phenyl)(8-((tetrahydrofuran-3-yl)amino)-3,4-dihydroisoquinolin-2(1H)-yl)methanone]
30 | < 0.1 | O=C(c1c(O)cc(C(F)F)cc1OCc1ccc2cnccc2c1)N1CCc2cccc(N[C@H]3CCOC3)c2C1 [Example 28.2, (S)-(4-(Difluoromethyl)-2-hydroxy-6-(isoquinolin-6-ylmethoxy)phenyl)(8-((tetrahydrofuran-3-yl)amino)-3,4-dihydroisoquinolin-2(1H)-yl)methanone]
